Experimental data reported in US20250325491A1, “POLYVALENT MOLECULE BASED LIPID NANOPARTICLES FOR NUCLEIC ACID DELIVERY” (Bio-TRIP B.V., priority 2022, published 2025).

What was measured:
[1] = mRNA recovery, entrapment and retention by Ribogreen assay; format: physicochemical; settings: mRNA-aNPs containing the polyvalent material; for Retention of mRNA: retention = recovery x entrapment
Protocol: The Quant-iT RiboGreen assay (Thermo Fisher) was used to quantify the amount of siRNA loaded inside the formulated particles. The assay was performed using a black 96-well plate. The formulation sample with a theoretical siRNA concentration of 133.3 μg/mL, was diluted 200 times in TE buffer (10 mM Tris-HCl, 1 mM, EDTA, pH 7.5 in DEPC-treated water) and with a TE buffer containing 2% Triton™ X-100, in a black 96-well plate to a total volume of 100 μl. The Triton detergent will disrupt the lipid-based nanoparticles; therefore, all siRNA (retained plus unretained) becomes accessible for the Quant-iT RiboGreen reagent. Controls of siRNA of known concentration (28.6 μg/mL) were diluted 53.3 times in both TE buffer and TE buffer containing 2% Triton in a 96-well plate to a total volume of 100 μl. Next, RiboGreen reagent was diluted 200 times with TE buffer and with TE buffer containing Triton. 100 μl of this dilution was added to each well containing sample or control to bring the total volume in the plate to 200 μl. Subsequently, the samples' fluorescence was measured on a Tecan Spark® microplate reader at an excitation wavelength of 480 nm and emission wavelength of 520 nm.
This was done in a similar way as described for determining the siRNA encapsulation efficiency.

[2] = Dynamic light scattering (DLS) of nanoparticles; format: physicochemical
Protocol: The hydrodynamic diameter of the formulated particles was determined by a number-weighted mean diameter provided by dynamic light scattering (DLS) using a Zetasizer Nano ZS in combination with a Malvern Zetasizer NanoSampler (Malvern Instruments, Worcestshire, UK). The size dispersity was measured as the poly dispersity index (PDI). For the DLS measurements, 100 μl of the formulated nanoparticle was diluted into 700 μl of PBS (137 mM NaCl, 2.7 mM KCl, 10 mM Na2HPO4 and 1.8 mM KH2PO4) and equilibrated at room temperature before the analysis. Each sample was measured 5 times, 10 runs of each 10 seconds, at wavelength 633 nm, without fixing the attenuator and measurement position.

[3] = Cryo-TEM of nanoparticles; format: physicochemical; settings: siRNA-aNPs containing the polyvalent material
Protocol: Size and shape of the nanoparticles was also assessed by cryo-transmission electron microscopy (cryo-TEM). The surface of 200-mesh lacey carbon supported copper grids (Electron Microscopy Sciences) was plasma charged for 40 seconds using a carbon coater (Cressington 208). Subsequently, 3 μl of nanoparticle sample (˜1 mg protein/ml) was pipetted on a grid and vitrified into a thin film by plunge vitrification in liquid ethane. This step was performed by using an automated robot (FEI Vitrobot Mark IV). Cryo-TEM imaging was acquired on the cryo-transmission electron microscope TITAN (Thermo Fisher), equipped with a field emission gun (FEG), a post-column Gatan imaging filter (model 2002) and a post-GIF 2 k×2 k Gatan CCD camera (model 794). The imaging was performed at 300 kV acceleration voltage in bright-field TEM mode with zero-loss energy filtering at 24,000× magnification (dose rate of 11.8 e−/Å2·s), and 1s acquisition time. Pictures and results are reported in Table S6, FIG. 7, FIG. 8, FIG. 9 (A), FIG. 15.

[4] = test system: RAW264.7 macrophage cells; assay: In vitro Firefly luciferase expression (mRNA transfection); format: cell-based; settings: 100 ng mRNA per well, 24 hours after transfection (FIG. 14)
Protocol: For the detection of Firefly luciferase expression in vitro, the ONE-Glo™ Luciferase Assay System (Promega) was used. RAW264.7 cells were seeded at a density of 35 k cells per well in a 96-well plate in 100 μL. After approximately 6 hours the RAW264.7 cells were transfected with 10 μL Firefly luciferase mRNA (RIBOPRO) using aNPs or LNPs at a dose of 100 ng mRNA per well. 24 hours after transfection, cell viability was determined by a CellTiter 96® AQueous One Solution Cell Proliferation assay (MTS) (Promega) assay. 10 μL reagent was added to the cells, and absorbance was measured at 495 nm after an hour of incubation (37° C., 5% CO2). Subsequently, the cells were washed three times with 1×PBS, and then 40 μL ONE-Glo™ Luciferase Assay Reagent was added to each well. After complete lysis of the cells, the cell lysates were transferred to a white flat bottom 96-well plate. Luminescence was measured using a Tecan Spark plate reader. Luciferase expression was expressed as luciferase intensity after normalization to the cell viability and subtracting background signal.

[5] = test system: Firefly luciferase in RAW264.7 cell line transfected with the pmirGLO plasmid; assay: In vitro silencing (dose-response curve); settings: RAW 264.7 cell line; siRNA-aNPs containing the polyvalent molecule vs DLin-MC3-DMA or ALC-0315 particles (FIG. 11)
Protocol: The in vitro silencing experiments were performed in a RAW264.7 cell line transfected with the pmirGLO plasmid (containing Renilla luciferase and Firefly luciferase expressing gene sequences). The cells were cultured until 80% confluency in a T75 cell culture flask. The cells were detached, counted, and seeded at 10000 cells/well in a 96-well plate. After overnight resting, the cells were transfected with nanoparticles containing anti Firefly luciferase siRNA at a range of concentrations. After 48-hour incubation, the old medium was washed off with 1×PBS. Lysate phosphate buffer (Dual-Luciferase® Reporter Assay System, Promega) was added to lyse the cells. […] Subsequently, 40 μl of ONE-Glo™ reagent (Dual-Luciferase® Reporter Assay System, Promega) was added and luminescence was measured with a Tecan Spark® microplate reader at an integration time of 500 ms, and settle time of 1000 ms. Since the luminescence peak should be in the range of 550-570 nm, a luminescence scan was performed to confirm the wavelength. Next, 40 μl of Stop and Glo reagent (Dual-Luciferase® Reporter Assay System, Promega) was added to each well and the luminescence was measured again in the same way. The relative remaining Firefly luciferase luminescence was calculated. First, the Firefly luminescence was normalized with the Renilla luminescence. […]

[6] = formulation for in vitro experiment (Table S8)
[7] = formulation for in vivo experiment (Table S8)
[8] = mRNA-aNPs containing the polyvalent material, in vitro experiment formulation
[9] = mRNA-aNPs containing the polyvalent material, in vivo experiment formulation
[10] = siRNA-aNPs containing A2, N/P = 6, High Cholesterol (3.37 mg)
[11] = siRNA-aNPs containing A2, N/P = 6, Low Cholesterol (0.54 mg)
[12] = siRNA-aNPs containing A2, N/P = 6, Low Triglyceride (5 mg)
[13] = siRNA-aNPs containing A2, N/P = 6, No Triglyceride
[14] = siRNA-aNPs containing A2, N/P = 6, phospholipid DMPC
[15] = siRNA-aNPs containing A2, N/P = 6, phospholipid DPPC
[16] = siRNA-aNPs containing A2, N/P = 6, phospholipid DSPC
[17] = siRNA-aNPs containing A2, N/P = 6, phospholipid POPC
[18] = siRNA-aNPs containing A2, composition as Table S3 except N/P = 3
[19] = siRNA-aNPs containing A2, composition as Table S3 except N/P = 9
[20] = siRNA-aNPs containing the polyvalent material (Table S3), SD over individual repeats

## CCCCCCCCOC(=O)CCN(CCCN(CCCCN(CCCN(CCC(=O)OCCCCCCCC)CCC(=O)OCCCCCCCC)CCCN(CCC(=O)OCCCCCCCC)CCC(=O)OCCCCCCCC)CCCN(CCC(=O)OCCCCCCCC)CCC(=O)OCCCCCCCC)CCC(=O)OCCCCCCCC [Example A2, G1-ACR-nC8-8]
[1]; [6]
  Entrapment of mRNA: 87%
  Recovery of mRNA: 27%
  Retention of mRNA: 23%
[1]; [7]
  Entrapment of mRNA: 88%
  Recovery of mRNA: 57%
  Retention of mRNA: 50%
[2]; [8]
  DLS Hydrodynamic diameter (number mean): 53 nm
  DLS PDI: 0.27
[2]; [9]
  DLS Hydrodynamic diameter (number mean): 63 nm
  DLS PDI: 0.08
[2]; [10]
  DLS Hydrodynamic diameter: 103 nm
  DLS PDI: 0.24
[2]; [11]
  DLS Hydrodynamic diameter: 95 nm
  DLS PDI: 0.07
[2]; [12]
  DLS Hydrodynamic diameter: 60 nm
  DLS PDI: 0.08
[2]; [13]
  DLS Hydrodynamic diameter: 122 nm
  DLS PDI: 0.16
[2]; [14]
  DLS Hydrodynamic diameter: 91 nm
  DLS PDI: 0.18
[2]; [15]
  DLS Hydrodynamic diameter: 61 nm
  DLS PDI: 0.08
[2]; [16]
  DLS Hydrodynamic diameter: 60 nm
  DLS PDI: 0.07
[2]; [17]
  DLS Hydrodynamic diameter: 123 nm
  DLS PDI: 0.08
[2]; [18]
  DLS Hydrodynamic diameter: 173 nm
  DLS PDI: 0.79
[2]; [19]
  DLS Hydrodynamic diameter: 62 nm
  DLS PDI: 0.24
[2]; siRNA-aNPs containing A2, in all cases
  nanoparticle diameter, all composition variations of Table S7: with diameters smaller than 200 nm are formed.
[2]; [20]
  DLS Hydrodynamic diameter (number mean): 57 ± 6 nm
  DLS PDI: 0.16 ± 0.03
[3]; SD over n individual particles
  Cryo-TEM Diameter: 55 ± 11 nm
[3]; n individual particles
  Cryo-TEM PDI: 0.04
[4]
  Luminescence intensity after Firefly luciferase mRNA transfection, compared with ALC-0315 LNP and aNP controls: outperform the reference LNP and aNP particles
[5]
  silencing potency compared with reference aNPs or LNPs (dose response curve): higher potency than the reference aNPs or LNPs
